In patent publication US20220017572A1, “GEMINOID LIPOPEPTIDE COMPOUNDS AND THEIR USES” (Erasmus University Medical Center Rotterdam, priority 2016, published 2022):
Non-standard residues stand in square brackets, D forms with d. Residues, ends and D or L forms follow the SMILES beside them. C12 = C12 alkyl chain at peptide end (geminoid); C16 = C16 alkyl chain at peptide end (geminoid); C20 = C20 alkyl chain at peptide end (geminoid); C3 = C3 alkyl chain at peptide end

Molecular target: T1, dengue 2 protease (Dengue virus type 2, UniProt P14340)
T1 construct: The active site of the dengue protease is in the N-terminal part of NS3
T1 sequence (P14340 1476-1653): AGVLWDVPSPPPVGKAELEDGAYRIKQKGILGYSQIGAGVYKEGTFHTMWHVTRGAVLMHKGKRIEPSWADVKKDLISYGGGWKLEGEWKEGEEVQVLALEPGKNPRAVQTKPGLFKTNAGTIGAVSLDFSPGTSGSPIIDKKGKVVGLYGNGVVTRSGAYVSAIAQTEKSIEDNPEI
Experiment: Dengue 2 protease inhibition in presence of Triton X-100 (detergent test, Nature Protocol)
Type: biochemical, dengue 2 virus
Settings: 5 μM of inhibitor, 0.05% Triton X-100
Source text: A further investigation of the interactions of the geminoid inhibitors with biological membranes and with membrane-bound proteases is needed. […] The preparation and tests of peptides symmetrically, asymmetrically and singly alkylated with saturated, short (C6), and unsaturated (C18:1) alkyl tails are in progress.

| Molecule | % recovery in presence of Triton [%] |
| --- | --- |
| CCCCCCCCCCCCNC(=O)[C@H](CCCCN)NC(=O)[C@H](C)NC(=O)[C@H](C)NC(=O)[C@H](C)NC(=O)[C@H](CCCCN)NC(=O)CCCCCCCCCCC [C12KA3KC12, n-C11H23C(O)-Lys-(Ala)3-Lys-(n-C12H25).2TFA] (HELM PEPTIDE1{[CCCCCCCCCCCC(=O)[*:2]].K.A.A.A.K.[CCCCCCCCCCCCN[*:1]]}$$$$V2.0) | 45 |

Same assay, conditions: 5 μM of inhibitor, 0.05% Triton X-100; initial activity in UAF/min

| Molecule | Activity with 0.05% Triton |
| --- | --- |
| CCCCCCCCCCCCNC(=O)[C@H](CCCCN)NC(=O)[C@H](C)NC(=O)[C@H](C)NC(=O)[C@H](C)NC(=O)[C@H](CCCCN)NC(=O)CCCCCCCCCCC [C12KA3KC12, n-C11H23C(O)-Lys-(Ala)3-Lys-(n-C12H25).2TFA] (HELM PEPTIDE1{[CCCCCCCCCCCC(=O)[*:2]].K.A.A.A.K.[CCCCCCCCCCCCN[*:1]]}$$$$V2.0) | 85 |

Molecular target: T1, dengue 2 protease
Experiment: Dengue 2 protease inhibition, hydrolysis of Z-RR-MCA
Type: biochemical, dengue 2 virus
Set-up: Activity with inhibitors: unit not given here
Settings: not given
Experimental: The active site of the dengue protease is in the N-terminal part of NS3 which is also a serine protease with catalytic triad Asp79-His51-Ser135, but requires […] (CF40) for activity; the inhibition reported here was studied on a […] (CF40-GGGGSGGGG-NS3; (SEQ ID NO:54)) which has also been structurally characterized [Erbel et al., 2006; Luo et al. 2008].
Substrate was added in a concentration 10 times the Km, and the inhibitor compounds of type C (C16-KGnK-C16, C16-KAnK-C16, and C16-RAnR-C16) were added in increasing concentrations (1.0, 5.0, 10.0, 20.0, 40.0 μL) from a stock solution of 2 mg in 1 mL DMSO. The residual activity was measured in a Hitachi F2500 spectrofluorimeter, and plots were fitted using the Grafit® software (Erithracus Software, Horley, Surrey, UK). All the assays were calculated by the Morrison equation for competitive inhibition (eq. 1, [Morrison, 1969]). The amount of substrate used for the tight binding titration experiments follow all the requirements, where [S]<<Km for all enzymes, so the Kiapp=Ki.
Range of Proteases Inhibited by Geminoids, Determination of Ki with Z-RR-MCA (Dengue 2 Protease) and Ac-RVRR-MCA (Furin) (SEQ ID NO:60).

| Molecule | Ki [µM] |
| --- | --- |
| CCCCCCCCCCCCNC(=O)[C@H](CCCCN)NC(=O)[C@H](C)NC(=O)[C@H](C)NC(=O)[C@H](C)NC(=O)[C@H](CCCCN)NC(=O)CCCCCCCCCCC [C12KA3KC12, n-C11H23C(O)-Lys-(Ala)3-Lys-(n-C12H25).2TFA] (HELM PEPTIDE1{[CCCCCCCCCCCC(=O)[*:2]].K.A.A.A.K.[CCCCCCCCCCCCN[*:1]]}$$$$V2.0) | 5.4 |

Same assay, conditions: 5 μM of inhibitor; 10 μM Z-RR-MCA, pH 9.0, 37° C.; initial activity in UAF/min

| Molecule | Activity with inhibitors |
| --- | --- |
| CCCCCCCCCCCCNC(=O)[C@H](CCCCN)NC(=O)[C@H](C)NC(=O)[C@H](C)NC(=O)[C@H](C)NC(=O)[C@H](CCCCN)NC(=O)CCCCCCCCCCC [C12KA3KC12, n-C11H23C(O)-Lys-(Ala)3-Lys-(n-C12H25).2TFA] (HELM PEPTIDE1{[CCCCCCCCCCCC(=O)[*:2]].K.A.A.A.K.[CCCCCCCCCCCCN[*:1]]}$$$$V2.0) | 30 |

Tested on: DENV2 protease replicon
Experiment: DENV2 protease replicon assay
Type: cell-based
Settings: lowest concentration with observed activity in replicon assay

| Molecule | Replicon activity [μM] (1) [µM] |
| --- | --- |
| C2-AKAK-C3: alkylated peptide in shorthand Cp-Zn-Cq, peptide SEQ ID NO: 74 (Et-AKAK-C3) | 10.0 |
| C2-LKAK-C3: alkylated peptide in shorthand Cp-Zn-Cq, peptide SEQ ID NO: 75 (Et-LKAK-C3) | 10.0 |
| C3-AKKK-C3: alkylated peptide in shorthand Cp-Zn-Cq, peptide SEQ ID NO: 71 ({C3 alkyl}-AKKK-{C3 alkyl}) | 10.0 |
| C3-ARRK-C3: alkylated peptide in shorthand Cp-Zn-Cq, peptide SEQ ID NO: 76 ({C3 alkyl}-ARRK-{C3 alkyl}) | 3.0 |
| C3-FKKK-C3: alkylated peptide in shorthand Cp-Zn-Cq, peptide SEQ ID NO: 73 ({C3 alkyl}-FKKK-{C3 alkyl}) | 10.0 |
| C3-LKKK-C3: alkylated peptide in shorthand Cp-Zn-Cq, peptide SEQ ID NO: 72 | 10.0 |
| C8-AKAK-C8: alkylated peptide in shorthand Cp-Zn-Cq, peptide SEQ ID NO: 74 ({C8 alkyl}-AKAK-{C8 alkyl}) | 10.0 |
| C8-AKKK-C8: alkylated peptide in shorthand Cp-Zn-Cq, peptide SEQ ID NO: 71 ({C8 alkyl}-AKKK-{C8 alkyl}) | 10.0 |
| C8-ARRK-C8: alkylated peptide in shorthand Cp-Zn-Cq, peptide SEQ ID NO: 76 ({C8 alkyl}-ARRK-{C8 alkyl}) | 10.0 |
| C8-FKKK-C8: alkylated peptide in shorthand Cp-Zn-Cq, peptide SEQ ID NO: 73 ({C8 alkyl}-FKKK-{C8 alkyl}) | 10.0 |
| C8-LKAK-C8: alkylated peptide in shorthand Cp-Zn-Cq, peptide SEQ ID NO: 75 ({C8 alkyl}-LKAK-{C8 alkyl}) | 10.0 |
| C8-LKKK-C8: alkylated peptide in shorthand Cp-Zn-Cq, peptide SEQ ID NO: 72 | 10.0 |
| C12-AKAK-C12: geminoid in shorthand Cp-Zn-Cq, peptide SEQ ID NO: 74 | 10.0 |
| C12-ARRK-C12: geminoid in shorthand Cp-Zn-Cq, peptide SEQ ID NO: 76 | 0.3 |
| C12-FKKK-C12: geminoid in shorthand Cp-Zn-Cq, peptide SEQ ID NO: 73 | 10.0 |
| C12-LKAK-C12: geminoid in shorthand Cp-Zn-Cq, peptide SEQ ID NO: 75 | 10.0 |
| C12-RARK-C12: geminoid in shorthand Cp-Zn-Cq, peptide SEQ ID NO: 77 | 1.0 |
| C16-AAKK-C16: geminoid in shorthand Cp-Zn-Cq, peptide SEQ ID NO: 62 | 5.0 |
| C16-AFKK-C16: geminoid in shorthand Cp-Zn-Cq, peptide SEQ ID NO: 68 | 5.0 |
| C16-AKAKS-C16: geminoid in shorthand Cp-Zn-Cq, peptide SEQ ID NO: 89 | 1.0 |
| C16-AKKK-C16: geminoid in shorthand Cp-Zn-Cq, peptide SEQ ID NO: 71 | 1.0 |
| C16-ALKK-C16: geminoid in shorthand Cp-Zn-Cq, peptide SEQ ID NO: 65 | 10.0 |
| C16-ARRK-C16: geminoid in shorthand Cp-Zn-Cq, peptide SEQ ID NO: 76 | 0.3 |
| C16-D-AKAK-C16: geminoid in shorthand Cp-Zn-Cq, D-peptide, SEQ ID NO: 74 (C16-[dA][dK][dA][dK]-C16) | 2.9 |

| Molecule | Replicon activity [μM] (1) [µM] |
| --- | --- |
| C16-D-AKAKG-C16: geminoid in shorthand Cp-Zn-Cq, D-peptide, SEQ ID NO: 87 (C16-[dA][dK][dA][dK]G-C16) | 3.0 |
| C16-D-AKAKS-C16: geminoid in shorthand Cp-Zn-Cq, D-peptide, SEQ ID NO: 89 (C16-[dA][dK][dA][dK][dS]-C16) | 5.0 |
| C16-D-LKAK-C16: geminoid in shorthand Cp-Zn-Cq, D-peptide, SEQ ID NO: 75 (C16-[dL][dK][dA][dK]-C16) | 9.9 |
| C16-D-LKAK-L-S-C16: geminoid in shorthand Cp-Zn-Cq, D-LKAK with L-S, SEQ ID NO: 90 (C16-[dL][dK][dA][dK]S-C16) | 3.0 |
| C16-D-LKAKG-C16: geminoid in shorthand Cp-Zn-Cq, D-peptide, SEQ ID NO: 88 (C16-[dL][dK][dA][dK]G-C16) | 3.0 |
| C16-FAKK-C16: geminoid in shorthand Cp-Zn-Cq, peptide SEQ ID NO: 64 | 3.0 |
| C16-FFKK-C16: geminoid in shorthand Cp-Zn-Cq, peptide SEQ ID NO: 70 | 5.0 |
| C16-FFQK-C16: geminoid in shorthand Cp-Zn-Cq, peptide SEQ ID NO: 82 | 3.0 |
| C16-FLKK-C16: geminoid in shorthand Cp-Zn-Cq, peptide SEQ ID NO: 67 | 3.0 |
| C16-GLKR-C16: geminoid in shorthand Cp-Zn-Cq, peptide SEQ ID NO: 84 | 3.0 |
| C16-LAKK-C16: geminoid in shorthand Cp-Zn-Cq, peptide SEQ ID NO: 63 | 5.0 |
| C16-LFKK-C16: geminoid in shorthand Cp-Zn-Cq, peptide SEQ ID NO: 69 | 10.0 |
| C16-LKAK-C16: geminoid in shorthand Cp-Zn-Cq, peptide SEQ ID NO: 75 | 3.0 |
| C16-LKKK-C16: geminoid in shorthand Cp-Zn-Cq, peptide SEQ ID NO: 72 | 1.0 |
| C16-LKRR-C16: geminoid in shorthand Cp-Zn-Cq, peptide SEQ ID NO: 83 | 3.0 |
| C16-LLKK-C16: geminoid in shorthand Cp-Zn-Cq, peptide SEQ ID NO: 66 | 3.0 |
| C16-LLQK-C16: geminoid in shorthand Cp-Zn-Cq, peptide SEQ ID NO: 81 | 0.3 |
| C16-NKKR-C16: geminoid in shorthand Cp-Zn-Cq, peptide SEQ ID NO: 86 | 3.0 |
| C16-QRKR-C16: geminoid in shorthand Cp-Zn-Cq, peptide SEQ ID NO: 85 | 3.0 |
| C16-RARK-C16: geminoid in shorthand Cp-Zn-Cq, peptide SEQ ID NO: 77 | 3.0 |
| C20-AKKK-C20: geminoid in shorthand Cp-Zn-Cq, peptide SEQ ID NO: 71 | 3.0 |
| C20-FKKK-C20: geminoid in shorthand Cp-Zn-Cq, peptide SEQ ID NO: 73 ({C20 alkyl}-FKKK-{C20 alkyl}) | 0.9 |
| C20-LKKK-C20: geminoid in shorthand Cp-Zn-Cq, peptide SEQ ID NO: 72 | 1.0 |
